Test results taken from US11865129B2, “Application of anemoside B4 in preparation of a drug for treatment or prevention of psoriasis” (GUANGXI XINHAI PHARMACEUTICAL TECHNOLOGY CO., LTD., priority 2021, dated 2024).

What was measured:
[1] = system: IL-17; experiment: IL-17 level in skin tissue, psoriasis model mice; type: in vivo, BALB/c male mice; conditions: 12 days, compared with model control group
Experimental: (§1) A shaving area on the back of the mice in each group is 2.5 cm×3 cm, and the vellus is removed with mild depilatory cream. The mice of each group except the blank control group are modeled by administrating 62.5 mg 5% imiquimod cream on the shaving area until the skin is thickened and has erythema and silver scales for modeling completely. During the model establishment, 5% imiquimod cream is administrated once a day, and continuously administrated for 14 days. On the third day, the model establishment is continued and drugs are administered at the same time, wherein the mice in the AC intragastric administration group (8 mg/kg), the anemoside B4 intragastric (i.g.) administration group (5 mg/kg), the anemoside B4 intragastric administration group (10 mg/kg), and the anemoside B4 intragastric administration group (20 mg/kg) are administrated once a day, and continuously administrated for 12 days. […] The mice in the blank control group and the model control group are applied 62.5 mg Vaseline to the skin lesions once a day, and continuously applied for 12 days. The weight of the mice is recorded for counting the weight change of the mice. 100 mg skin tissue of the mice in each group of the first animal group are precisely weighed, added 0.9 mL ice normal saline, homogenized with the tissue grinder, and centrifuged at 4° C. and 3000 rpm for 10 min. The supernatant is collected, and IL-12, IL-17, IL-6 and IL-1β level in the skin tissue are measured by kits according to the procedures of specification.

[2] = system: VEGF; experiment: VEGF level in serum by ELISA, psoriasis model rats; type: in vivo, SD male rats; conditions: 7 days, vs model control group
Experimental: (§2) 60 SPF-grade SD male rats in the second animal group are divided into 6 groups: a blank control group, a model control group, an anemoside B4 intragastric administration group (5 mg/kg), an anemoside B4 intragastric administration group (10 mg/kg), an anemoside B4 intragastric administration group (20 mg/kg), and an acitretin intragastric administration group (5 mg/kg), and are respectively expressed into the blank control group, the model group, anemoside B4 5 mg/kg, anemoside B4 10 mg/kg, anemoside B4 20 mg/kg, and acitretin 5 mg/kg in FIGS. 3, 4 and 5 for convenience. A shaving area on the back of the rats in each group is 2.5 cm×3 cm, and the vellus is removed with mild depilatory cream. The rats of each group except the blank control group are modeled by administrating 62.5 mg 5% imiquimod cream on the shaving area until the skin is thickened and has erythema and silver scales for modeling completely.
(§3) 5% imiquimod cream is administrated once a day, and continuously administrated for 8 days for model establishment. On the second day, the rats in each group are continuously intragastric (i.g.) administered drugs for 7 days.
(§4) After administration, blood is taken from abdominal aorta of the rats in each group of the second animal group, centrifuged to collect the serum, and measured the M-CSF, VEGF, IL-6 and IL-17 level in the serum by ELISA kits according to the procedures of specification.

[3] = system: 5% imiquimod-induced psoriatic lesions; experiment: Psoriatic lesions and PASI, 5% imiquimod-induced psoriasis model in rats (second animal group); type: in vivo, SD male rats; conditions: 7 days; for erythema and skin lesions of the rats: compared to model control group; for PASI: compared with model control group
Experimental: as §2, §3
The psoriasis area and severity index (PASI) of the mice in the first animal group and the rats in the second animal group is performed by taking photographs of the shaving area, giving 0-4 scores for the degree of erythema, scales and infiltration thickness in the skin lesions according to a PASI standard, and obtaining the total scores by summing the scores of the three parts; wherein the PASI standard is as follows: none 0, mild 1, moderate 2, severe 3, and extremely severe 4.

[4] = system: IL-17; experiment: IL-17 level in serum by ELISA, psoriasis model rats; type: in vivo, SD male rats; conditions: 7 days, vs model control group
Experimental: as §2, §3, §4

[5] = system: IL-6; experiment: IL-6 level in serum by ELISA, psoriasis model rats; type: in vivo, SD male rats; conditions: 7 days, vs model control group
Experimental: as §2, §3, §4

[6] = system: T lymphocyte subsets of CD4+, CD3+, CD4+/CD8+; experiment: T lymphocyte subsets by flow cytometry, psoriasis model rats; type: in vivo, SD male rats; conditions: 7 days, vs model control group
Experimental: as §2, §3
After administration, blood is taken from abdominal aorta of the rats in each group of the second animal group, added erythrocyte lysis buffer, centrifuged to collect T lymphocytes, incubated CD4, CD3 and CD8 antibodies in 4° C., washed with a buffer, centrifuged to collect cells, and is subjected to flow cytometry to measure the ratio of the T lymphocyte subsets.

[7] = system: white blood cell (WBC), Neutrophilicgranulocyte (Neu) and Lymphocyte (Lym); experiment: Blood analysis (blood routine tester), psoriasis model mice; type: in vivo, BALB/c male mice; conditions: 12 days, compared with model control group
Experimental: as §1, with “Eyeball blood” for “100 mg skin tissue”, “is drawn on the last day, and measured the level of white blood cell (WBC), […] (Neu) and Lymphocyte (Lym) in blood” for “are precisely weighed, added 0.9 mL ice normal saline, homogenized”, “blood routine tester.” for “tissue grinder, and centrifuged at 4° C. and 3000 rpm for 10 min. The supernatant is collected, and IL-12, IL-17, IL-6 and IL-1β level in the skin tissue are measured by kits according to the procedures of specification.”

[8] = intragastric 5 mg/kg once a day
[9] = intragastric 10 mg/kg once a day
[10] = intragastric 20 mg/kg once a day

## C=C(C)[C@@H]1CC[C@]2(C(=O)O[C@@H]3O[C@H](CO[C@@H]4O[C@H](CO)[C@@H](O[C@@H]5O[C@@H](C)[C@H](O)[C@@H](O)[C@H]5O)[C@H](O)[C@H]4O)[C@@H](O)[C@H](O)[C@H]3O)CC[C@]3(C)[C@H](CC[C@@H]4[C@@]5(C)CC[C@H](O[C@@H]6OC[C@H](O)[C@H](O)[C@H]6O[C@@H]6O[C@@H](C)[C@H](O)[C@@H](O)[C@H]6O)[C@@](C)(CO)[C@@H]5CC[C@]43C)[C@H]12 [anemoside B4]
[1]; [8]
  level of IL-17 in the skin tissue: significantly reduced
[1]; [9]
  level of IL-17 in the skin tissue: significantly reduced
[1]; [10]
  level of IL-17 in the skin tissue: significantly reduced
[2]; intragastric 5 mg/kg
  VEGF level in serum: significantly decreased
[2]; intragastric 10 mg/kg
  VEGF level in serum: significantly decreased
[2]; intragastric 20 mg/kg
  VEGF level in serum: significantly decreased
[3]; intragastric 5 mg/kg
  erythema and skin lesions of the rats: lightened
[3]; intragastric 10 mg/kg
  erythema and skin lesions of the rats: lightened
  PASI: significantly decreased
[3]; intragastric 20 mg/kg
  erythema and skin lesions of the rats: lightened
  PASI: significantly decreased
[4]; intragastric 5 mg/kg
  IL-17 level in serum: significantly decreased
[4]; intragastric 10 mg/kg
  IL-17 level in serum: significantly decreased
[4]; intragastric 20 mg/kg
  IL-17 level in serum: significantly decreased
[5]; intragastric 5 mg/kg
  IL-6 level in serum: significantly decreased
[5]; intragastric 10 mg/kg
  IL-6 level in serum: significantly decreased
[5]; intragastric 20 mg/kg
  IL-6 level in serum: significantly decreased
[6]; intragastric 5 mg/kg
  ratio of CD3+ in serum: significantly increased
  ratio of CD4+ in serum: significantly increased
  ratio of CD4+/CD8+ in serum: significantly increased
[6]; intragastric 10 mg/kg
  ratio of CD3+ in serum: significantly increased
  ratio of CD4+ in serum: significantly increased
  ratio of CD4+/CD8+ in serum: significantly increased
[6]; intragastric 20 mg/kg
  ratio of CD3+ in serum: significantly increased
  ratio of CD4+ in serum: significantly increased
  ratio of CD4+/CD8+ in serum: significantly increased
[7]; [8]
  Lym in blood: significantly decreased
  Neu in blood: significantly decreased
  WBC in blood: significantly decreased
[7]; [9]
  Lym in blood: significantly decreased
  Neu in blood: significantly decreased
  WBC in blood: significantly decreased
[7]; [10]
  Lym in blood: significantly decreased
  Neu in blood: significantly decreased
  WBC in blood: significantly decreased
